According to patent publication US12060349B2, “Glucosylceramide synthase inhibitors” (Genzyme Corporation, priority 2012, dated 2024):
pIC50: −log10 of the molar value. Where two headings read alike, the source gives them in different places.

How the values were obtained:
[1] = molecular target: T1, glucosylceramide synthase (Homo sapiens, UniProt Q16739); test: microsomal assay measuring conversion of ceramide to glucosylceramide by HPLC (GCS IC50); type: biochemical; details: concentration causing 50% inhibition of glucosylceramide synthase activity
T1 construct: Microsomes were isolated from A375 human melanoma cells; endogenous in cells; host or cells: A375 human melanoma cells (microsomal fraction, 100,000 g pellet)
T1 sequence (Q16739 1-394): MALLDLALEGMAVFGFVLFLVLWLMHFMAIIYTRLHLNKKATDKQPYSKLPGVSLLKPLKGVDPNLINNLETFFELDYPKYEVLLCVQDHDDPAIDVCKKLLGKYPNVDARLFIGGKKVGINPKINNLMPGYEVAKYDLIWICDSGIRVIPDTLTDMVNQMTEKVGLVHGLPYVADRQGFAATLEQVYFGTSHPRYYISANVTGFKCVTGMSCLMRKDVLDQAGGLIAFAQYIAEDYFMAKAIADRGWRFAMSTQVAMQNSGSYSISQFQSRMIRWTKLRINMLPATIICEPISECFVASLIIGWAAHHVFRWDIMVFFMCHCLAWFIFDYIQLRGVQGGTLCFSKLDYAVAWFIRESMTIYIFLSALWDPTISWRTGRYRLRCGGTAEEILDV
In short: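 IC50 is the compound concentration halving glucosylceramide synthase activity. Activity was measured in microsomes, with HPLC quantifying glucosylceramide formed from ceramide.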

[2] = test system: GM3 expression on the cell surface, B16 mouse melanoma cells; test: cell based phenotypic assay, cell surface GM3 by antibody mediated immunofluorescence, B16 (GM3 B16 IC50); details: 50% inhibition of GM3 expression on the cell surface
In short: (§1)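 Two melanoma lines, mouse B16 and human C32, were treated and surface GM3 quantified by antibody immunofluorescence for IC50. A parallel viability readout gives the concentration killing 50% of cells, with values over 10 indicating no cell death.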

[3] = test system: GM3 expression on the cell surface, C32 human melanoma cells; test: cell based phenotypic assay, cell surface GM3 by antibody mediated immunofluorescence, C32 (GM3 C32 IC50); details: 50% inhibition of GM3 expression on the cell surface
In short: as §1

B16 mouse melanoma cells = test: cell viability in the B16 cell-based assay (Viability, B16 IC50)
In short: (§2)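 Cell death was scored within the cell-based GM3 experiment for each line. The viability value is the concentration producing 50% death, and numbers exceeding 10 signify no cytotoxicity.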

C32 human melanoma cells = test: cell viability in the C32 cell-based assay (Viability, C32 IC50); details: concentration causing 50% cell death, values greater than 10 represent a lack of cell death
In short: as §2

jck mice = test: glucosylceramide synthase inhibition in a model of polycystic kidney disease (jck mice); type: in vivo, mouse; details: FIG. 3
Source text: Mice homozygous for the Nek8jck mutation develop polycystic kidney disease (“jck mice”). […] Disease is progressive but not evident by kidney palpation until at least 4 to 5 weeks of age. Homozygotes generally remain active until shortly before death and usually die between 20 and 25 weeks of age. […] No histologic abnormalities are found in the liver, spleen, or pancreas. (Atala et al., 1993).
To evaluate the effects of a GCS inhibitor on polycystic kidney disease, Compound 156, (S)-quinuclidin-3-yl (2-(4′-(2-methoxyethoxy)-[1,1′-biphenyl]-4-yl)propan-2-yl)carbamate was administered in the feed of jck mice at doses of 15, 30 and 50 mg/kg. A second compound, quinuclidin-3-yl (2-(4′-fluoro-[1,1′-biphenyl]-3-yl)propan-2-yl)carbamate (hereinafter “GZ 161”) was administered in the feed of jck mice at a dose of 60 mg/kg.
Administration of the compound was started between 3 and 4 weeks of age, and continued until the mice were sacrificed at 9 weeks of age. The effect of the compounds on the disease phenotype was evaluated by measurement of body weight, blood urea nitrogen (“BUN”), and serum GL1. Additional effects on kidney/body weight (K/BW), cyst volume, BUN, kidney GL1, and serum GL1 were also measured at the end of life time point of the study.

K14 mouse = K14 mouse model of type 2 Gaucher disease; type: in vivo
Source text: As noted above, Gaucher Disease results from a deficiency of the lysosomal enzyme glucocerebrosidase (GC). In the most common phenotype of Gaucher disease (type 1), pathology is limited to the reticuloendothelial and skeletal systems and there are no neuropathic symptoms. See Barranger, Glucosylceramide lipidosis: Gaucher disease. In: Scriver CR BA, Sly WS, Valle D, editor. The Metabolic Basis of Inherited Disease. New York: McGraw-Hill. pp. 3635-3668 (2001). In neuropathic Gaucher disease (nGD), subdivided into type 2 and type 3 Gaucher disease, the deficiency of glucocerebrosidase (GC) causes glucosylceramide (GluCer; GL-1) and glucosylsphingosine (GluSph) to accumulate in the brain, leading to neurologic impairment. Type 2 Gaucher disease is characterized by early onset, rapid progression, extensive pathology in the viscera and central nervous system, and death usually by 2 years of age. Type 3 Gaucher disease, also known as subacute nGD, is an intermediate phenotype with varying age of onset and different degrees of severity and rates of progression. Goker-Alpan et al., The Journal of Pediatrics 143: 273-276 (2003). A recent development has produced the K14 lnl/lnl mouse model of type 2 Gaucher disease (hereinafter, the “K14 mouse”); this mouse model closely recapitulates the human disease showing ataxia, seizures, spasticity and a reduced median lifespan of only 14 days. Enquist et al., PNAS 104: 17483-17488 (2007).
As in patients with nGD, several mouse models of the disease have increased levels of GluCer and GluSph in the brain due to the deficiency in GC activity. Liu et al., PNAS 95: 2503-2508 (1998) and Nilsson, J. Neurochem 39: 709-718 (1982). The “K14” mice display a neuropathic phenotype that shares many pathologic features with type 2 Gaucher disease, such as neurodegeneration, astrogliosis, microglial proliferation, and increased levels of GluCer and GluSph in specific brain regions. Enquist et al. (2007).
Clinical management of patients affected by nGD poses a challenge for treating physicians both because of the severity of type 2 disease and the inability of the current therapies to cross the blood brain barrier (BBB). Current treatment of non-nGD relies on the intravenous delivery of recombinant human glucocerebrosidase (Imiglucerase; Cerezyme™) to replace the missing enzyme or the administration of glucosylceramide synthase inhibitors to attenuate substrate (GL-1) production. […] Current small molecule glucosylceramide synthase inhibitors in the clinic are not likely to address the neuropathic phenotypes of nGD.

[4] = all three dose groups (15, 30 and 50 mg/kg in feed), vs vehicle control group
[5] = in feed at 15, 30 and 50 mg/kg, associated with GL1 inhibition
[6] = B16 mouse melanoma cells, read-out: GM3 B16 IC50
[7] = C32 human melanoma cells, read-out: GM3 C32 IC50
[8] = B16 cells, concentration causing 50% cell death, values greater than 10 represent a lack of cell death, read-out: Viability, B16 IC50
[9] = C32 cells, read-out: Viability, C32 IC50

Compound: COCCOc1ccc(-c2ccc(C(C)(C)NC(=O)O[C@@H]3CN4CCC3CC4)cc2)cc1 [Example 156, (S)-Quinuclidin-3-yl (2-(4′-(2-methoxyethoxy)-[1,1′-biphenyl]-4-yl)propan-2-yl)carbamate]
- pIC50 [1]: 8.38
- pIC50 ([2]; Mus musculus, read-out: GM3 B16 IC50, B16 mouse melanoma cells): 7.36
- pIC50 ([3]; Homo sapiens, read-out: GM3 C32 IC50, C32 human melanoma cells): 8.88
- pIC50 (B16 mouse melanoma cells; Mus musculus, B16, read-out: Viability, B16 IC50): 5.32
- pIC50 (C32 human melanoma cells; Homo sapiens, C32, read-out: Viability, C32 IC50, C32 cells): 6.12
- body weight (jck mice; 30 mg/kg in feed, vs vehicle control group): statistically different
- body weight (jck mice; 50 mg/kg in feed, vs vehicle control group): statistically different
- BUN (blood urea nitrogen) (jck mice; [4]): statistically different
- cyst volume (jck mice; [4]): statistically different
- kidney to body weight (K/BW) (jck mice; [4]): statistically different
- cyst growth (jck mice; [5]): reduced
- kidney function (jck mice; [5]): preservation
- GL1 levels (jck mice; in feed at 15, 30 and 50 mg/kg, from 3-4 weeks to 9 weeks of age, vs vehicle control): dose-dependent inhibition

Compound: CC(C)(NC(=O)OC1CN2CCC1CC2)c1cccc(-c2ccc(F)cc2)c1 (stereo not shown) [GZ 161, quinuclidin-3-yl (2-(4′-fluoro-[1,1′-biphenyl]-3-yl)propan-2-yl)carbamate]
- kidney to body weight (K/BW) (jck mice; 60 mg/kg in feed, vs vehicle control group): statistically different

Compound: CC(C)(NC(=O)OC1CN2CCC1CC2)c1cccc(-c2ccc(F)cc2)c1 (stereo not shown) [Gz161, Quinuclidin-3-yl (2-(4′-fluoro-[1,1′-biphenyl]-3-yl)propan-2-yl)carbamate]
- brain GluCer (K14 mouse): reduce
- brain GluSph (K14 mouse): reduce
- brain neuropathology (K14 mouse): reduced
- lifespan (K14 mouse): extended

Compound: Quinuclidin-3-yl (2-(4′-(2-methoxyethoxy)-[1,1′-biphenyl]-3-yl)propan-2-yl)carbamate [Example 175]
- pIC50 [1]: 8.60
- pIC50 [2, 6]: 7.15
- pIC50 [3, 7]: 8.73
- pIC50 (B16 mouse melanoma cells; [8]): ≤ 5.00
- pIC50 (C32 human melanoma cells; [9]): 5.05

Compound: Quinuclidin-3-yl (2-(4′-((2-methoxyethoxy)methyl)-[1,1′-biphenyl]-3-yl)propan-2-yl)carbamate [Example 203]
- pIC50 [1]: 7.53
- pIC50 [2, 6]: 7.02
- pIC50 [3, 7]: 8.19
- pIC50 (B16 mouse melanoma cells; [8]): ≤ 5.00
- pIC50 (C32 human melanoma cells; [9]): 5.75
